Data taken from publication PMC8892092 (The Journal of Biological Chemistry, 2022).

Tests used:
LuHNL [1] = molecular target: T1, LuHNL (Linum usitatissimum, UniProt P93243, V117T); assay type: binding; parameters: E. coli SHuffle T7
LuHNL [2] = molecular target: T1, LuHNL
LuHNL [3] = molecular target: LuHNL (Linum usitatissimum, UniProt P93243, V117T/F340A)
LuHNL [4] = molecular target: T1, LuHNL; assay type: binding; parameters: E. coli SHuffle T7; remark: listed apart in the source
LuHNL [5] = molecular target: T1, LuHNL; assay type: binding; parameters: E. coli SHuffle T7; remark: listed apart in the source
[6] = molecular target: the molecule itself; experiment: crystal structure; X-ray crystal structures of N-His-LuHNL (ligand-free with glycerol, soaked with acetone cyanohydrin, soaked with (rac)-2-butanone cyanohydrin); sitting drop, 20 °C, 0.1 M BIS-TRIS pH 6.5, 20% PEG MME 5,000; space group P2_(1), two dimers per asymmetric unit

CC[C@@](C)(O)C#N [(R)-BCN, (R)-2-butanone cyanohydrin]
X-ray crystal structure, 1.72 Å (LuHNL [1]): (R)-2-butanone cyanohydrin (BCN) complexed LuHNL (LuHNL_BCN) were determined

CC(C)(O)C#N [CNH, acetone cyanohydrin]
Km (LuHNL [2]): 2.7 ± 0.3 mM | Km (LuHNL [3]): 5.4 ± 2.3 mM | X-ray crystal structure, 1.58 Å (LuHNL [4]): The structures for acetone cyanohydrin (CNH) complexed LuHNL (LuHNL_CNH)

NC(=O)c1ccc[n+]([C@@H]2O[C@H](COP(=O)(O)OP(=O)(O)OC[C@H]3O[C@@H](n4cnc5c(N)ncnc54)[C@H](O)[C@@H]3O)[C@@H](O)[C@H]2O)c1 [NAD^+]
X-ray crystal structure, 1.48 Å; NAD+ quantitation (LuHNL [5]): electron density of NAD^+ was observed in the crystal without the addition of exogenous NAD^+

B1: Hydroxynitrile lyase from Linum usitatissimum (LuHNL), N-terminally His-tagged (enzyme)
chain: MASLPVSFAKPDKNGVITCKAIMLKEAKLPGMSYADTVQIIDIQVDPPQNVELRVKMLCASVCRTDILTIEGFMAPTQFPKINGHEGVGIIESMGPDTKNFKVGDVIVAPTLGECQTCSSCRSGRTNFCQNYGANESALEPDGTSRFSYIDSDGKKKLLYYKLGCSTWTQYMVVDSNYATKLNEIAPELPPPHGSILSCAFATGYGAVWLDAAVQEGDSVAIFGVGSVGISAVIAAKELKAKQIIVVDRNEYKLKMAMELGATHCINSEKLPEGVTPSQAVRKLTPKEVGVDASIESSGYDVFMNEAMKAAIHGKAKTVITGEGIYENDRIFFDFKDFLFGGNVVGNVTGRVRIHSDFPGLLRKAQEPVIRAGMDKILGYDAATMKCKYEVDIREGTPALLKALEEVENVDCVKLVIKLNDY
modifications: S-nitrosylation of Cys265 proposed from the electron density in the crystal (not detected in LuHNL solution)
notes: Hydroxynitrile lyase from Linum usitatissimum, gene of GenBank AF024588.1 (protein AAB81956.1), which has Thr117; Each subunit holds one NAD+, two Zn2+ and one Mg2+; The gene was cloned between NdeI and BamHI of pET-15b; also called N-His-LuHNL; LuHNL-wild; source: SHuffle T7 Express E. coli, pET-15b, purified (Ni Sepharose, Mono Q)
stoichiometry N [6]: 2
